# Source: ChEMBL document CHEMBL5291721, “A preclinical secondary pharmacology resource illuminates target-adverse drug reaction associations of marketed drugs” (Nat Commun, 2023)
# Tests used:
# [1] = molecular target: T1, Muscarinic acetylcholine receptor M1 (Homo sapiens, UniProt P11229); type: functional, cell-based
# T1 sequence (P11229 whole entry): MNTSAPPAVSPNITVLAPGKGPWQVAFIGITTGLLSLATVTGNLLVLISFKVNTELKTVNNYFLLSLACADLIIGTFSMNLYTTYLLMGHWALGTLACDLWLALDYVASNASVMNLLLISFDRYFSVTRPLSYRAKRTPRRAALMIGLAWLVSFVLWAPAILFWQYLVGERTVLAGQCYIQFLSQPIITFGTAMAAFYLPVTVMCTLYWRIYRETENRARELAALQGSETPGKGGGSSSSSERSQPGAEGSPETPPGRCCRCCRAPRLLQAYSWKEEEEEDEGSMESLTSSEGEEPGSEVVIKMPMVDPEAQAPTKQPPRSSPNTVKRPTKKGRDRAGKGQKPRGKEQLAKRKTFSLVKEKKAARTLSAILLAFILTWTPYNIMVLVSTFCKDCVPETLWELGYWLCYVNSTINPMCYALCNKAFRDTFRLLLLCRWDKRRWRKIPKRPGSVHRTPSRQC
# D(1A) dopamine receptor [2] = molecular target: T2, D(1A) dopamine receptor (Homo sapiens, UniProt P21728)
# [3] = molecular target: T1, Muscarinic acetylcholine receptor M1; type: functional, cell-based; remark: listed apart in the source
# [4] = molecular target: Gamma-aminobutyric acid receptor subunit alpha-1 (Rattus norvegicus, UniProt P62813)
# D(1A) dopamine receptor [5] = molecular target: T2, D(1A) dopamine receptor; type: functional, cell-based
# Vasopressin V2 receptor = Vasopressin V2 receptor (Homo sapiens, UniProt P30518)
# [6] = molecular target: Glutamate receptor ionotropic, NMDA 1 (Rattus norvegicus, UniProt P35439)
# [7] = molecular target: T3, 5-hydroxytryptamine receptor 3A (Homo sapiens, UniProt P46098); type: functional
# T3 sequence (P46098 whole entry): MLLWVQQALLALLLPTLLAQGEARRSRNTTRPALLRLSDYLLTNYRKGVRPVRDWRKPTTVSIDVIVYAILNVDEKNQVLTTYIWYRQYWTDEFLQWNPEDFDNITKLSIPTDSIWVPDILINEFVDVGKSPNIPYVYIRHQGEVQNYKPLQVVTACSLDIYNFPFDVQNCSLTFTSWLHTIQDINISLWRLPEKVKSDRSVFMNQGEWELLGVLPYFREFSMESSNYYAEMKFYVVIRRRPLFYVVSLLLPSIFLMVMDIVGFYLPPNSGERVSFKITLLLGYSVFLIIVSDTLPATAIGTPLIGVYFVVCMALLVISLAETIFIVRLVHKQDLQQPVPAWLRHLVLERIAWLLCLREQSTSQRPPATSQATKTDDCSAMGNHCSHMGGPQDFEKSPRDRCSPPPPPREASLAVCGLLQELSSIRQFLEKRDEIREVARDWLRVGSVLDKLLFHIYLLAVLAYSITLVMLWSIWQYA
# [8] = molecular target: Sodium-dependent dopamine transporter (Homo sapiens, UniProt Q01959)
# Motilin receptor = Motilin receptor (Homo sapiens, UniProt O43193)
# Adenosine receptor A2a = Adenosine receptor A2a (Homo sapiens, UniProt P29274)
# [9] = molecular target: cGMP-inhibited 3',5'-cyclic phosphodiesterase 3A (Homo sapiens, UniProt Q14432); type: functional
# Melanocortin receptor 3 = Melanocortin receptor 3 (Homo sapiens, UniProt P41968)
# Further: assay procedure not described here.
# Sequence of Vasopressin V2 receptor (P30518 whole entry): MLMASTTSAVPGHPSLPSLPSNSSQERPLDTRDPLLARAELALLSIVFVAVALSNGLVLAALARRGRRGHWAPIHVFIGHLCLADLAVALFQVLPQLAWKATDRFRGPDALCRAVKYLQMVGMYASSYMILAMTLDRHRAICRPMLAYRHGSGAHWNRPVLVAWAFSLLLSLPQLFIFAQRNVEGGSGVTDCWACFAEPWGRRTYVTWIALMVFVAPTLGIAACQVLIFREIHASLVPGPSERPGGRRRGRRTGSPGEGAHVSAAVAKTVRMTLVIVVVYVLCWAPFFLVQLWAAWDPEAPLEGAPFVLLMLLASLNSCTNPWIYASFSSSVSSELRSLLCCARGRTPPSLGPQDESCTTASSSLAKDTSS
# Sequence of Motilin receptor (O43193 whole entry): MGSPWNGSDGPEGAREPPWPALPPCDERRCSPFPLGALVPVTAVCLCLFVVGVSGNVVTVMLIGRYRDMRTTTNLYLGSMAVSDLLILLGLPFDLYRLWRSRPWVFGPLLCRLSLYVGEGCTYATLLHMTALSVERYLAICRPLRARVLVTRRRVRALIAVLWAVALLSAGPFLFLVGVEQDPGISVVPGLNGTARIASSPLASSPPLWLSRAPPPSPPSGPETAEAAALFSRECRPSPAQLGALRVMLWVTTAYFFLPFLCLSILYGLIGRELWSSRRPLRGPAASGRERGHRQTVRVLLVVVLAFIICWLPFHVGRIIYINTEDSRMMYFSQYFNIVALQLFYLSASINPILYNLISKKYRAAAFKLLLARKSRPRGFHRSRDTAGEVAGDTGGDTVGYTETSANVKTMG
# Sequence of Gamma-aminobutyric acid receptor subunit alpha-1 (P62813 whole entry): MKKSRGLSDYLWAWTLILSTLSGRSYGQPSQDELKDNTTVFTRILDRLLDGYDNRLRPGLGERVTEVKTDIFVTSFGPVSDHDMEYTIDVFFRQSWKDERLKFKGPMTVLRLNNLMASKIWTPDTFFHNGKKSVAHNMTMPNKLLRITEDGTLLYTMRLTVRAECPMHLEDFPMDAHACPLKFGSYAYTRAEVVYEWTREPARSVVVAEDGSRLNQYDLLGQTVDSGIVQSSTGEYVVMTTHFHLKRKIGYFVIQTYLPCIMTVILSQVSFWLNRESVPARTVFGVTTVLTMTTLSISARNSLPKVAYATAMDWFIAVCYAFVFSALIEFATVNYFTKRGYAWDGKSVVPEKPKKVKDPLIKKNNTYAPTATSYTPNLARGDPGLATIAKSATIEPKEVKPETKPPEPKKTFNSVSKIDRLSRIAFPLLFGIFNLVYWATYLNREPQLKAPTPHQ
# Sequence of cGMP-inhibited 3',5'-cyclic phosphodiesterase 3A (Q14432 whole entry): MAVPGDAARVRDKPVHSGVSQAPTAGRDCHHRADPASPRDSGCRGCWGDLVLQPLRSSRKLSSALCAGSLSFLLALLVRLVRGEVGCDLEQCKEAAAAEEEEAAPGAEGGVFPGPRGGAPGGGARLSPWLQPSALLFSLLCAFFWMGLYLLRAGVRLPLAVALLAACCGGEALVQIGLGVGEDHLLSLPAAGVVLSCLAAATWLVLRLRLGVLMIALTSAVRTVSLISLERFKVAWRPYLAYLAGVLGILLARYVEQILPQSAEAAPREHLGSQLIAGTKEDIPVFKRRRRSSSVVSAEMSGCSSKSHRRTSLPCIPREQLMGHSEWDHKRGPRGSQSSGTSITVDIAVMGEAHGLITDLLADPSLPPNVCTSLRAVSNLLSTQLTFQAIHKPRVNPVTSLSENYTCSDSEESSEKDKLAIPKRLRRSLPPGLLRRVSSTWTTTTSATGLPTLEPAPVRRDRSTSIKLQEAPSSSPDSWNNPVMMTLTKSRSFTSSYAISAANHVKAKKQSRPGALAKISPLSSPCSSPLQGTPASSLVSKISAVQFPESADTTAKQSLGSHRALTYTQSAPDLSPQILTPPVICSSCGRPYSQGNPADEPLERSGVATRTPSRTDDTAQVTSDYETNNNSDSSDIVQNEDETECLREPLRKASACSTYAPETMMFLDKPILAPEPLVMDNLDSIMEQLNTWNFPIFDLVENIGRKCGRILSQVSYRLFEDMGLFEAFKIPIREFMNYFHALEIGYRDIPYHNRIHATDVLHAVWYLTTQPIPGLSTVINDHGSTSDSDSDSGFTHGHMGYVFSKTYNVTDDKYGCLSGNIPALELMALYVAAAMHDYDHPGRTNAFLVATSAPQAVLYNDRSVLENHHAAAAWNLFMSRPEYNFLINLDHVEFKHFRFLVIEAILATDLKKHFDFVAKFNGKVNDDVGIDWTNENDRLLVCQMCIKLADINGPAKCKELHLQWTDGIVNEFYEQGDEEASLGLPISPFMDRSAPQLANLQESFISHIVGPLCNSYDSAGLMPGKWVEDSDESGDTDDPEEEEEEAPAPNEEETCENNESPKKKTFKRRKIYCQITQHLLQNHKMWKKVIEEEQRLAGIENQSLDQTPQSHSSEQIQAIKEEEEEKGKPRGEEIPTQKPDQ
# T2 sequence (P21728 whole entry): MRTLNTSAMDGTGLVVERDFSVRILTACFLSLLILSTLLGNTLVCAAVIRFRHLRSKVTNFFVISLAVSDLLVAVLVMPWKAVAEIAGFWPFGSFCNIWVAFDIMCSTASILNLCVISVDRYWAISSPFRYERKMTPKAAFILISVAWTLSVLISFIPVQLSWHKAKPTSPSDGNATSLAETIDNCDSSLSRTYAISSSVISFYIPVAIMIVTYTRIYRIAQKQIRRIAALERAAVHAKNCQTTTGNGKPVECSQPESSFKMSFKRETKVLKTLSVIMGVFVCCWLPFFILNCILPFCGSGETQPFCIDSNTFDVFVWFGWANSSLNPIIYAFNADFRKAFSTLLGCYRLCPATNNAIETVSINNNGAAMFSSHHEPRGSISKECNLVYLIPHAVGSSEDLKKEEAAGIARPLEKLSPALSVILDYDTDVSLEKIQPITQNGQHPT
# Sequence of Sodium-dependent dopamine transporter (Q01959 whole entry): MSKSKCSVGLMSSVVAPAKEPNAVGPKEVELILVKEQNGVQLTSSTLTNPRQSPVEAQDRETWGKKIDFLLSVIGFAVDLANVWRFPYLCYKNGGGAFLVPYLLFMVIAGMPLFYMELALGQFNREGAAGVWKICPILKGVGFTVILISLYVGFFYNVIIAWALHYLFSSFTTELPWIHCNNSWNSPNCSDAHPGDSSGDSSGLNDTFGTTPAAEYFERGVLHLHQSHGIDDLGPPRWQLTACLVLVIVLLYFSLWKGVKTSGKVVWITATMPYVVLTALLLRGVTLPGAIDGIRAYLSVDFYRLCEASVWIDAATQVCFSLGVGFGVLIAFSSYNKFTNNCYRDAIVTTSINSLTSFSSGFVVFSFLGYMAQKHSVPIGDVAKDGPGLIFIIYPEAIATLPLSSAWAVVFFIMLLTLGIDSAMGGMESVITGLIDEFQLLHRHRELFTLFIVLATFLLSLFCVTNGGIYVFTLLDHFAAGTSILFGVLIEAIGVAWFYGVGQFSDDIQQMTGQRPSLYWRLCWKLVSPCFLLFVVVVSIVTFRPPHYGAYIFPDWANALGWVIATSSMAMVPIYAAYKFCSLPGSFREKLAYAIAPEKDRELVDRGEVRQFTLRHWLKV
# Sequence of Melanocortin receptor 3 (P41968 whole entry): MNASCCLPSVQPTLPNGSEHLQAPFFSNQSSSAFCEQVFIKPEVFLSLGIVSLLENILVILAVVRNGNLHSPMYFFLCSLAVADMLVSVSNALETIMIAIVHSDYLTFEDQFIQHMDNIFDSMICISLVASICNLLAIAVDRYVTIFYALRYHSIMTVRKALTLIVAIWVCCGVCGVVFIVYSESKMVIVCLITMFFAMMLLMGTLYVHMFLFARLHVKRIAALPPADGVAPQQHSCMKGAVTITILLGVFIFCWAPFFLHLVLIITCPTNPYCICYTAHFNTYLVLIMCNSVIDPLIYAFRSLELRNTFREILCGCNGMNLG
# Sequence of Adenosine receptor A2a (P29274 whole entry): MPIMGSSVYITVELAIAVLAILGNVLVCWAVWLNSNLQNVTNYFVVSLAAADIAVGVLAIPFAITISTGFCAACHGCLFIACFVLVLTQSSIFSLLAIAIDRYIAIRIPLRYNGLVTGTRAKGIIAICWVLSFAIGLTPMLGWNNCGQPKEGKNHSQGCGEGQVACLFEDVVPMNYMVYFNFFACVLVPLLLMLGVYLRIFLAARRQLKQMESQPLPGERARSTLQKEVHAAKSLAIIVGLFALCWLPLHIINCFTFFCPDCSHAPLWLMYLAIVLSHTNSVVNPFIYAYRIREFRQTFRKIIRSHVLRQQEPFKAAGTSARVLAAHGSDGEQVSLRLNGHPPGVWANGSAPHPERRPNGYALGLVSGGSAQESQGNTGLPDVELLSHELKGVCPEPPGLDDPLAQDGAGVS
SMILES,AC50 [1] [µM],AC50 (D(1A) dopamine receptor [2]) [µM],AC50 [3] [µM],AC50 [4] [µM],AC50 (D(1A) dopamine receptor [5]) [µM],AC50 (Vasopressin V2 receptor) [µM],AC50 [6] [µM],AC50 [7] [µM],AC50 [8] [µM],AC50 (Motilin receptor) [µM],AC50 (Adenosine receptor A2a) [µM],AC50 [9] [µM],AC50 (Melanocortin receptor 3) [µM]
CC1(C)CCC(C)(C)c2cc(NC(=O)c3ccc(C(=O)O)cc3)ccc21 [TAMIBAROTENE],> 10,> 30,> 30,> 30,,,,,,,,,
CC(C)Cc1ccc(C(C)C(=O)OCc2ccccn2)cc1 (centres undefined) [IBUPROFEN PICONOL],> 10,> 30,> 30,> 30,,,,,,,,,
CN1CCc2c(c3ccccc3n2Cc2ccccc2)C1 [MEBHYDROLIN],1.96,1.98,> 30,25.4,,,,,,,,,
CC(=O)Nc1ccc(/C=N/NC(N)=S)cc1 [AMITHIOZONE],,> 30,,> 30,,,,,,,,,
CC(=O)OC1CN2CCC1CC2 (centres undefined) [ACECLIDINE],,> 30,,> 30,,,,,,,,,
C[C@]12C=CC(=O)C=C1CC[C@@H]1[C@@H]2[C@@H](O)C[C@@]2(C)[C@H]1CC[C@]2(O)C(=O)CO [PREDNISOLONE],,,,,> 10,> 30,> 10,> 30,> 30,> 10,> 30,> 30,> 30
CCC(=O)c1ccc2c(c1)N(CC(C)N(C)C)c1ccccc1S2 (centres undefined) [PROPIOMAZINE],,,,,> 10,> 10,> 10,> 30,> 10,> 10,> 10,> 30,> 10
COc1cccc2c1C(=O)c1c(O)c3c(c(O)c1C2=O)C[C@@](O)(C(=O)CO)C[C@@H]3O[C@H]1C[C@H](N)[C@H](O)[C@H](C)O1 [DOXORUBICIN],,> 30,,> 30,> 30,> 30,> 10,> 30,> 30,> 30,> 30,> 30,> 30
CC1(C)O[C@@H]2C[C@H]3[C@@H]4CCC5=CC(=O)C=C[C@]5(C)[C@@]4(F)[C@@H](O)C[C@]3(C)[C@]2(C(=O)CO)O1 [TRIAMCINOLONE ACETONIDE],,,,,> 30,> 30,> 30,> 30,> 30,> 30,> 30,> 30,> 30
C[C@]12CCC(=O)C=C1[C@@H]1C[C@@H]1[C@H]1[C@@H]3[C@@H]4C[C@@H]4[C@@]4(CCC(=O)O4)[C@@]3(C)CC[C@@H]12 [DROSPIRENONE],,,,,> 30,> 30,> 30,> 30,> 30,> 30,> 30,> 30,> 30
CN(C)CCC(O)(c1ccccc1)c1ccccc1Cl (centres undefined) [CHLOPHEDIANOL],,,,,> 10,> 10,> 10,> 30,> 10,> 10,> 10,> 30,> 10
O=C(OOC(=O)c1ccccc1)c1ccccc1 [BENZOYL PEROXIDE],> 30,> 30,> 30,> 30,,,,,,,,,
Cc1cccc(C)c1NC(=O)CN(CC(=O)O)CC(=O)O [LIDOFENIN],> 30,> 30,> 30,> 30,,,,,,,,,
COc1cccc2c1C(=O)c1c(O)c3c(c(O)c1C2=O)C[C@@](O)(C(=O)CO)C[C@@H]3O[C@H]1C[C@H](N)[C@@H](O)[C@H](C)O1 [EPIRUBICIN],,> 30,,> 30,,,,,,,,,
CC(=O)OCC(=O)[C@@]1(O)CC[C@H]2[C@@H]3C[C@H](C)C4=CC(=O)C=C[C@]4(C)[C@H]3[C@@H](O)C[C@@]21C [METHYLPREDNISOLONE ACETATE],> 30,> 30,> 30,> 30,,,,,,,,,
N=C(N)NC(=O)c1nc(Cl)c(N)nc1N [AMILORIDE],,> 30,,> 30,> 30,> 30,> 30,> 30,> 30,> 30,> 30,> 30,> 30

SMILES,AC50 [1] [µM],AC50 (D(1A) dopamine receptor [2]) [µM],AC50 [3] [µM],AC50 [4] [µM],AC50 (D(1A) dopamine receptor [5]) [µM],AC50 (Vasopressin V2 receptor) [µM],AC50 [6] [µM],AC50 [7] [µM],AC50 [8] [µM],AC50 (Motilin receptor) [µM],AC50 (Adenosine receptor A2a) [µM],AC50 [9] [µM],AC50 (Melanocortin receptor 3) [µM]
Oc1cc(Cl)ccc1Oc1ccc(Cl)cc1Cl [TRICLOSAN],,,,,> 30,> 30,> 30,,24,> 30,> 30,> 30,> 30
CCOC1O[C@H]([C@@H](COCc2ccccc2)OCc2ccccc2)[C@H](OCc2ccccc2)[C@H]1O (some centres undefined) [TRIBENOSIDE],8.21,> 30,> 30,> 30,,,,,,,,,
CC1=C(/C=C/C(C)=C\C=C\C(C)=C\C(=O)O)C(C)(C)CCC1 [ALITRETINOIN],,> 30,,> 30,,,,,,,,,
O=C1Nc2ccccc2C1(c1ccc(O)cc1)c1ccc(O)cc1 [OXYPHENISATINE],> 30,> 30,> 30,> 30,,,,,,,,,
C[C@]12C=CC(=O)C=C1C(Cl)=C[C@@H]1[C@@H]2[C@@H](O)C[C@@]2(C)[C@H]1CC[C@]2(O)C(=O)CO [CLOPREDNOL],,,,,> 30,> 30,> 30,> 30,> 30,16,> 30,> 30,> 30
N[C@@H](Cc1ccc(O)cc1)C(=O)O [TYROSINE],> 30,> 30,> 30,> 30,,,,,,,,,
CC(C)=CCC/C(C)=C/CC/C(C)=C/CC/C(C)=C/CC1=C(C)C(=O)c2ccccc2C1=O [MENATETRENONE],> 30,> 30,> 30,> 30,,,,,,,,,
CN(C)[C@@H]1C(O)=C(C(=O)NCN2CCCC2)C(=O)[C@@]2(O)C(O)=C3C(=O)c4c(O)cccc4[C@@](C)(O)[C@H]3C[C@@H]12 [ROLITETRACYCLINE],,,,,> 10,> 10,> 10,> 30,> 10,> 10,> 10,> 30,> 10
C[C@]12CCC(=O)C=C1C=C[C@@H]1[C@@H]2CC[C@@]2(C)[C@H]1CC[C@@]21CCC(=O)O1 [CANRENONE],,,,,> 30,> 30,> 30,> 30,> 30,> 30,> 30,> 30,> 30
CC(C)NC[C@H](O)COc1ccc(CCOCC2CC2)cc1 [LEVOBETAXOLOL],> 30,> 30,> 30,> 30,,,,,,,,,
CC(C)(Oc1ccc(Cl)cc1)C(=O)OCCOC(=O)c1cccnc1 [ETOFIBRATE],,,,,> 30,> 30,> 30,> 30,> 30,> 30,> 30,> 30,> 30
Cn1c(CCCC(=O)O)nc2cc(N(CCCl)CCCl)ccc21 [BENDAMUSTINE],> 30,> 30,> 30,> 30,,,,,,,,,
CC1=C(/C=C/C(C)=C/C=C/C(C)=C\C(=O)O)C(C)(C)CCC1 [ISOTRETINOIN],,> 30,,> 30,,,,,,,,,
CSCC[C@H](N)C(=O)O [METHIONINE],,> 30,,> 30,,,,,,,,,
COc1ccc(-c2cc(=S)ss2)cc1 [ANETHOLTRITHION],,,,,> 30,> 30,> 30,> 10,10,> 10,11,> 30,18
CNC(=O)c1cnn(-c2nc(N)c3ncn([C@@H]4O[C@H](CO)[C@@H](O)[C@H]4O)c3n2)c1 [REGADENOSON ANHYDROUS],> 30,> 30,> 30,> 30,,,,,,,,,
